Key:
[1] = test system: FOP-derived fibroblasts; assay: Differentiation of FOP-derived fibroblasts to osteoblasts in the absence of serum when using each inhibitor (ALP immunostaining and ALP activity); type: cell-based, human; details: BMP6 and TFLLR stimulation
[2] = test system: NOG mice; assay: Ectopic ossification in teratomas from FOP patient iPS cells implanted into testicle of NOG mice, PAR1 inhibitor (CT); type: in vivo; details: 0.2 mg/kg/day intraperitoneally once daily from 9 weeks after implantation
[3] = test system: normal subject-derived fibroblasts; assay: PAR1 mRNA expression by BMP6 stimulation in the presence of serum (qPCR), normal subject-derived fibroblasts; type: cell-based, human; details: BMP6 50 ng/mL, over time
Protocol: (§1) • (1) Fibroblasts were created from skin biopsy explants from FOP patients and normal subjects under informed consent by a protocol approved by Ethics committee. • (2) Skin samples from patients and from normal subjects were finely cut and cultured in DMEM medium supplemented with 10% fetal bovine serum (FBS). • (3) After emergence of fibroblasts was observed, the fibroblasts were grown to introduce a reprogramming gene. The grown fibroblasts were then put in a solution for freezing containing 10% DMSO+90% FBS and cryopreserved. <2. […] Intensity of bands was evaluated by Image J software (NIH, USA). • (4) In immunoprecipitation, 293T cells in which Smads were overexpressed, and KDM6B or LSD1 were lysed in RIPA buffer (50 mM Tris-HCl, pH 7.4, 1 mM EDTA, 150 mM NaCl, 1% NP-40, protease/phosphatase inhibitor cocktail). […]

[4] = test system: FOP-derived fibroblasts; assay: PAR1 mRNA expression by BMP6 stimulation in the presence of serum (qPCR), FOP-derived fibroblasts; type: cell-based, human; details: BMP6 50 ng/mL, over time, compared to normal subject-derived fibroblasts
Protocol: as §1

[5] = test system: FOP-derived fibroblasts; assay: Differentiation of FOP-derived fibroblasts to osteoblasts by BMP6 / TFLLR stimulation in the absence of serum (ALP immunostaining and ALP activity); type: cell-based, human; details: single stimulus
Protocol: as §1

In the case of `CC(C)c1ccc(Cn2ccc3c4c(N)nc(NC5CC5)nc4ccc32)cc1` [SCH79797, N3-cyclopropyl-7-[[4-(1-methylethyl)phenyl]methyl]-7H-pyrrolo[3,2-f]quinazoline-1,3-diamine], the ALP activity ([1]; 200 nM) is reported as “largely decreased” and the “ALP expression (immunostaining)” value ([1]; 200 nM) is reported as “largely decreased”.

For `CCOC(=O)N[C@@H]1CC[C@@H]2[C@@H](C1)C[C@H]1C(=O)O[C@H](C)[C@H]1[C@H]2/C=C/c1ccc(-c2cccc(F)c2)cn1` [Vorapaxar, ethyl [(1R,3aR,4aR,6R,8aR,9S,9aS)-9-{(1E)-2-[5-(3-fluorophenyl)pyridin-2-yl]ethen-1-yl}-1-methyl-3-oxododecahydronaphtho[2,3-c]furan-6-yl]carbamate], the ALP activity ([1]; 1 μM) was “largely decreased”, the “ALP expression (immunostaining)” value ([1]; 1 μM) was “largely decreased” and the “bone volume in the teratomas relative to vehicle” value [2] was “about one third”. The “teratoma volume calculated from CT images versus vehicle” value [2] was “a significant difference in the teratoma volume was not observed” and the “bones found in the teratomas (CT images) versus vehicle” value ([2]; after 2 weeks of administration) was “notably less”.

B1: BMP6: bone morphogenetic protein used as osteogenic stimulus (protein, UniProt P22004 375-513, looked up)
Bone morphogenetic protein 6: SASSRRRQQSRNRSTQSQDVARVSSASDYNSSELKTACRKHELYVSFQDLGWQDWIIAPKGYAANYCDGECSFPLNAHMNATNHAIVQTLVHLMNPEYVPKPCCAPTKLNAISVLYFDDNSNVILKKYRNMVVRACGCH
In the case of B1, the “mRNA expression level of PAR1” value [3] is reported as “significantly increased”, the “mRNA expression level of PAR1” value [4] is reported as “remarkable increase” and the “ALP activity compared to control” value [5] is reported as “significantly increased”. The “ALP expression (immunostaining)” value [5] was “observed”.
